Experimental data as given in patent publication US9186296B2, “Containers for compositions comprising meloxicam” (Boehringer Ingelheim Vetmedica GmbH, priority 2009, dated 2015).

Experiment: long-term stability programme according to VICH guideline 3 (storage in bottles of different materials)
Type: physicochemical
Settings: PP bottles compared with bottles made of HDPE or LDPE; FIG. 4, 5, 6
Protocol: The preferred pharmaceutical composition filled into containers made of the different types of packaging has been subject to a long-term stability programme according to the conditions as described in the VICH guideline 3. The conditions used for storage were 25° C./60% r.h. (r.h.=relative humidity), 30° C./70% r.h., and 40° C. /75% r.h.
The stability studies of a 0.5 mg/ml suspension were carried out with 3 ml and 4 ml of the suspension being filled into 5 ml HDPE bottles. […] This has not been observed before for any of the suspensions (1.5 mg/ml or 0.5 mg/ml) or the different fill volumes. The shelf-life of the 1.5 mg/ml suspension with a 10 ml fill (in a 25 ml bottle) is for example at least 18 months. An acceptable shelf-life for commercial use of the product with a volume size for the treatment of cats for a few days (up to five days) cannot be established by using HDPE as the container material.
Thus, polypropylene is a suitable material for holding small volumes of oral suspensions comprising meloxicam and sodium benzoate as preservative. The suitability of PP is further shown by comparison with the unsuitable negative reference containers made of PET and PC, see FIGS. 1, 3, and 4.

O=C([O-])c1ccccc1.[Na+] [sodium benzoate]
decrease of sodium benzoate content over 18 months or at least 18 months: significantly lower in PP bottles than in bottles made of either HDPE or LDPE
